In US20050009061A1, “Anther-specific genes, their promoters, and uses of the same” (priority 2003, published 2005):

Legend:
Format in all cases: in vivo, rice (Nipponbare)
Settings in all cases: mRNA in rice leaf sheaths after hormone treatment, Northern blotting (FIG. 2)
[1] = test system: OsTUB5; assay: Northern blotting of hormone specificity in rice leaf sheaths, OsTUB5
Method: (§1) After treatment with each hormone, Northern blotting using specific probes was performed to confirm the mRNA expression in rice leaf sheaths. C: No treatment; GA: gibberellin; BL: brassinolide; ABA: abscisic acid; IAA: auxin; BA: cytokinin.
(§2) Rice (variety: Nipponbare) was grown under conditions of 600 μmol/m^2s white fluorescent light at 25° C., 75% humidity, and under a twelve-hour day/night cycle. Commercially available high-grade gibberellin (GA3), brassinolide (BL), auxin (IAA), cytokinin (BA), and abscisic acid (ABA) were used. RNA for RNA blotting analysis was extracted using Chomczynski and Sacchi's method (Chomczynski, P. and Sacchi, N., 1987, Anal. Biochem., 162: 156-159). An oligotex-dT-30 mRNA purification kit (Takara) was used to prepare mRNA for microarray analysis.
(§3) Primers were constructed specifically for eight types of β-tubulin, respectively. PCR was carried out using each β-tubulin EST clone as a template, and using a T3 primer and a primer specific to the 3′-untranslated region of each β-tubulin. […]
(§4) About 0.5 g of tissue samples rapid frozen in liquid nitrogen was ground to a powder using a mortar and a pastle, and total RNA was prepared by the methods of Chomczynski and Sacchi (Chomczynski, P. and Sacchi, N., 1987, Anal. Biochem., 162: 156-159). […] The expression amount was analyzed using image analysis apparatus (Amersham Pharmacia Biotech).

[2] = test system: OsTUB6; assay: Northern blotting of hormone specificity in rice leaf sheaths, OsTUB6
Method: as §1, §2, §3, §4

[3] = test system: OsTUB7; assay: Northern blotting of hormone specificity in rice leaf sheaths, OsTUB7
Method: as §1, §2, §3, §4

[4] = test system: eight types of tubulin (β-tubulin mRNA expression in rice leaf sheaths); assay: Northern blotting of hormone specificity in rice leaf sheaths, all eight β-tubulins
Method: as §1, §2, §3, §4

| Compound | expression of OsTUB5 [1] | expression of OsTUB6 [2] | expression of OsTUB7 [3] | expression of all eight types of tubulin [4] |
| --- | --- | --- | --- | --- |
| CC(C)[C@H](C)[C@@H](O)[C@H](O)[C@@H](C)[C@H]1CC[C@H]2[C@@H]3COC(=O)[C@H]4C[C@H](O)[C@H](O)C[C@]4(C)[C@H]3CC[C@]12C [brassinolide] | increased | increased | increased |  |
| gibberellin | markedly increased | markedly increased | markedly increased |  |
| CC1=CC(=O)CC(C)(C)[C@@]1(O)/C=C/C(C)=C\C(=O)O [abscisic acid] |  |  |  | suppressed |
